Measurements: BindingDB's records for PubMed 33650861 (Sichuan University, 2021)

Assay: Inhibition of BET (unknown origin)

Cc1sc2c(c1C)C(c1ccc(Cl)cc1)=N[C@@H](CC(=O)OC(C)(C)C)c1nnc(C)n1-2
IC50: 500 nM
